Consider four molecules from patent US7252953B2, “Method of detecting and preventing Alzheimer's disease, particularly at prodromal and early stages” (United States of America Department of Veterans Affairs, priority 2002, dated 2007).

Test [1] concerns TNF-α. Description: TNF-α release in N9 clonal murine microglial cells. It counts as cell-based. The settings on record: for TNF-α release induced by the activator alone: single dose. How it is done: (§1) Primary microglial cultures were prepared from neonatal mouse (C57BL6) brains as previously described (Reference 29) and maintained in Delbecco's modified Eagle's medium with F-12 nutrient mixture (DMEM/F12) containing 10% fetal bovine sera (FBS) and antibiotics. N9 clonal murine microglial cell cultures were maintained in Iscoves modified Delbecco's medium (IMDM) containing 5% heat-inactivated FBS, 2 mM L-glutamine, 50 μM 2-mercaptoethanol and antibiotics. Treatment of both primary and N9 microglial cells were performed under serum-free conditions. Freshly solublized Aβ (BioSource, Camarillo, Calif.) peptides were prepared and characterized as previously described (References 30 and 44) and were used in all in vitro experiments. Unless specified, cells were always pretreated with sAβ for 5 min and then followed by challenge with α-thrombin (100 nM or as indicated), glutamate (2 mM) or LPS (5 ng/ml).
(§2) TNF-α production in microglial culture media was measured and standardized as previously described (Reference 29).
(§3) Given our results that sAβ disrupts GRK function and inhibits GPCR desensitization in microglia, we next investigated whether such signaling dysregulation might lead to cellular functional changes in microglia. Both primary and N9 clonal murine microglial cultures were used and TNF-α secretion in culture media was measured as an outcome. […] Moreover, the potentiation effect of sAβ on thrombin and glutamate-induced microglial activation was dose-dependent, with a minimal effective concentration (ECmin) of 20 nM and a maximal EC (ECmax) of 500 nM. Furthermore, the enhancement effect was not observed if sAβ was given after (10 min) thrombin or glutamate treatments. […] Together with the evidence that sAβ inhibits GRK-GPCR interactions and causes prolongation of GPCR signaling, we conclude that sAβ, by disrupting GRK function, alters microglial reactivity to specific GPCR activators.
FIG. 6A, pretreatment with sAβ1-42 potentiated (p<0.01) TNF-α release induced by increasing doses of thrombin (Thr) as indicated from primary mouse brain microglial cultures. n=4. […] The ECmin and ECmax for sAβ's potentiation are approximately 20 nM and 500 nM, respectively. n=6.

Another test concerns GRK5. In words: GRK5 subcellular distribution in sAβ-treated microglial cells (immunocytochemistry, semi-quantified). The settings on record: ICC; for translocation of GRK5 from cell membrane to cytosol: 5 min, primary murine microglial cells, serum-free medium. In kind it is cell-based, murine. The procedure:
(§4) Primary microglial cultures were prepared from neonatal mouse (C57BL6) brains as previously described (Reference 29) and maintained in Delbecco's modified Eagle's medium with F-12 nutrient mixture (DMEM/F12) containing 10% fetal bovine sera (FBS) and antibiotics. N9 clonal murine microglial cell cultures were maintained in Iscoves modified Delbecco's medium (IMDM) containing 5% heat-inactivated FBS, 2 mM L-glutamine, 50 μM 2-mercaptoethanol and antibiotics. Treatment of both primary and N9 microglial cells were performed under serum-free conditions.
Microglial cells were seeded onto poly-L-lysine-coated 8-chamber slides at a density of 1×10^4/well. After various treatments, cells were immediately fixed with pre-chilled (4° C.) 5% acetic acid in methanol for 45 min at 4° C., followed by washing with PBS. The fixed cells were blocked and double-stained with phalloidin-FITC (1:1,000) and anti-GRK5 (1:500) or GRK2 (1:500). Secondary antibody-Cy3 conjugates (1:500) staining, washing, mounting and confocal microscopic visualization were performed routinely as previously described (Reference 29).
Briefly, the selected cell image corresponding to GRK staining, was copied, enlarged, inverted and rotated to an appropriate position for quantification with NIH Image. […] FIGS. 3E and F show the examples of profiles for the solid-line indicated levels in FIGS. 3C and D, respectively. The dark and light grey areas in FIGS. 3E and F represent membrane and Cyto, respectively. The sum of areas for membrane and Cyto from all slices in each cell represents GRK subcellular distribution in this particular cell. For each treatment, 20 randomly selected cells were quantified and the average data were shown.
Microglial-mediated inflammation is an important pathological component of AD (Reference 28). […] Thrombin, a serine protease is known to activate protease-activated GPCRs, (PARs) such as PAR1 (Reference 29) and PAR4 in microglia.
N9 microglial cells were treated with sAβ1-42 (500 nM) for 5 minutes. […] The detailed methods for semi-quantification of GRK subcellular distribution are described in Methods section (above).

Test [2] concerns TNF-α. In words: TNF-α release in primary mouse brain microglial cultures. To be noted: 5 min pretreatment, FIG. 6A. It counts as cell-based. How it is done:
as §1, §2, §3
FIG. 6A, pretreatment with sAβ1-42 potentiated (p<0.01) TNF-α release induced by increasing doses of thrombin (Thr) as indicated from primary mouse brain microglial cultures. n=4. […]

Another test deals with [Ca^2+]i. In words: Ca2+ imaging (Fluo-4) in microglial cells. It counts as cell-based, murine. The procedure:
as §1
We measured [Ca^2+]i in microglial cells using Fluo-4 (2 μM) with the aid of a Nikon BioRadiance triple laser scanning confocal microscope. Image collection, quantification and data analysis were performed as previously described (Reference 29).
(§5) In previous studies, we found thrombin signaling via PARs in microglial cells involving [Ca^2+]i increase and transient activation of both p38 and p44/42 mitogen-activated protein kinases (MAPKs) (Reference 29). To understand potential consequences of GRK dysfunction induced by sAβ, for these studies we also assessed changes in thrombin signaling in sAβ-pretreated microglial cells.
(§6) FIG. 5A, N9 microglial cells were pre-treated with 500 nM sAβ1-42 (arrow “1”) followed by 100 nM thrombin treatment (arrow “2”). Changes in [Ca^2+]i were measured as previously described (Reference 29) from three separate experiments. […] For both FIGS. 5B and 5C, lane M=Marker, 1=Control (0 min), 2=Control (25 min), 3=Aβ1-42 (25 min), 4=Thrombin (20 min), 5=Aβ1-42+thrombin (20 min post-Aβ), 6=Control (24 h), 7=Aβ1-42 (24 h), 8=Thrombin (24 h) and 9=Aβ1-42+thrombin (24 h post-Aβ). “P” and “T” indicate phosphorylated and total p38 or p44/42 MAPKs, respectively.

The subject of a further test is PAR4-GRK2. In words: GRK-PAR binding in microglial cells by IP and WB: PAR4-GRK2. In kind it is cell-based, murine. The settings on record: thrombin 100 nM alone, 30 seconds, compared to untreated microglial cells. The procedure: as §4, with “conditions. Freshly solublized Aβ (BioSource, Camarillo, Calif.) peptides were prepared and characterized as previously described (References 30 and 44) and were used in all in vitro experiments. […]” for “conditions.”
(§7) Cultured cells were lysed in pre-chilled 2×IP buffer I (Tris, 20 mM, pH 7.4; NaCl, 300 mM; EDTA, 2 mM; 2 mM EGTA, pH 8.0; 0.4 mM sodium ortho-vanadate, 2% Triton X-100; 1% NP-40; 0.4 mM PMSF) supplemented both with phosphatase and protease inhibitor cocktails. After centrifugation, the supernatants were collected and total protein concentrations were determined by the bicinchoninic acid assay (BCA). […] Both antibodies to GRK2 and GRK5 (Santa Cruz) were diluted 1:500 for WB, other routine procedures, WB for total and phospho-p44/42 MAPK, and semi-quantitative analysis of protein band density were performed as previously described (Reference 29). […]

Another test has as its system PAR1-GRK2. In words: GRK-PAR binding in microglial cells by IP and WB: PAR1-GRK2. It counts as cell-based, murine. To be noted: thrombin 100 nM alone, 30 seconds, compared to untreated microglial cells. How it is done: as §4, with “conditions. Freshly solublized Aβ (BioSource, Camarillo, Calif.) peptides were prepared and characterized as previously described (References 30 and 44) and were used in all in vitro experiments. […]” for “conditions.”
as §7

For another test, the system named is p38 MAPK. Description: p38 MAPK phosphorylation in microglial cells (WB). It counts as cell-based, murine. To be noted: substance alone. How it is done: as §1
(§8) Cultured cells were lysed in pre-chilled 2×IP buffer I (Tris, 20 mM, pH 7.4; NaCl, 300 mM; EDTA, 2 mM; 2 mM EGTA, pH 8.0; 0.4 mM sodium ortho-vanadate, 2% Triton X-100; 1% NP-40; 0.4 mM PMSF) supplemented both with phosphatase and protease inhibitor cocktails. After centrifugation, the supernatants were collected and total protein concentrations were determined by the bicinchoninic acid assay (BCA). Equal amounts (250 μg) of cell lysates from each group were mixed with 20 μl (˜5 μg) of either PAR1 or PAR4 antibodies, and brought to a total volume of 1 ml in 1×IP buffer. Following a 1 hour incubation at 4° C., appropriate secondary antibody-agarose conjugates were added followed by incubation (30 min with agitation), centrifugation and sufficient washes. The pellets were resuspended in 30 μl of electrophoresis sample buffer and boiled for 5 min. The supernatants were directly used for polyacrylamide sodium dodecyl sulfate gel electrophoresis (SDS-PAGE) and WB analysis. To prepare subcellular fractions of brain samples, we homogenized fresh or fresh-frozen tissues in Tris buffered saline solution (Tris, 10 mM, pH 7.4; NaCl, 150 mM; EDTA, 1 mM; 1 mM EGTA, pH 8.0; 0.2 mM sodium ortho-vanadate) supplemented with protease inhibitor cocktails. After centrifugation (12,000 g at 4° C. for 15 min), the supernatants were collected as cytosolic fractions. The pellets were resuspended in 1×IP buffer containing protease inhibitor cocktail. Following brief sonication and centrifugation (12,000 g at 4° C. for 15 min), the supernatants were collected as membrane fractions. Both antibodies to GRK2 and GRK5 (Santa Cruz) were diluted 1:500 for WB, other routine procedures, WB for total and phospho-p44/42 MAPK, and semi-quantitative analysis of protein band density were performed as previously described (Reference 29).
as §5, §6

A further test relates to p44/42 MAPK. Description: p44/42 MAPK phosphorylation in microglial cells (WB). In kind it is cell-based, murine. To be noted: substance alone. How it is done:
as §1, §8, §5, §6

The subject of the next test is PAR4-GRK5. Description: GRK-PAR binding in microglial cells by IP and WB: PAR4-GRK5. It counts as cell-based, murine. To be noted: thrombin 100 nM alone, 30 seconds, compared to untreated microglial cells. How it is done:
as §4, with “conditions. Freshly solublized Aβ (BioSource, Camarillo, Calif.) peptides were prepared and characterized as previously described (References 30 and 44) and were used in all in vitro experiments. […]” for “conditions.”
as §7

Setting [3] is: 5 min pretreatment, N9 cells, FIG. 6B.
The mark [4] stands for this setting: within 20 min post-Aβ treatment.

`N[C@@H](CCC(=O)O)C(=O)O` [glutamate]: the “TNF-α release induced by the activator alone” value in the test on TNF-α [1] (N9 cells, FIG. 6B) is given as “significantly stimulated”.

For the molecule “sAβ1-40: Freshly solubilized soluble β-amyloid 1-40 peptide (BioSource)”, in the test with GRK5 (50 nM peptide), the “translocation of GRK5 from cell membrane to cytosol” value is recorded as “not”.

“sAβ1-42: Freshly solubilized soluble β-amyloid 1-42 peptide (BioSource), mixture of monomeric and oligomeric Aβ”: in the test with TNF-α [2], the “effect of sAβ pretreatment on thrombin-induced TNF-α release” value is “potentiated”. In test [Ca^2+]i (sAβ1-42 500 nM alone), the “change of free [Ca^2+]i” value was “slow and moderate increase”; the “time for [Ca^2+]i to return to basal levels” value was at most 4 min. For the same molecule, in the test with TNF-α [1] (setting [3]), the “effect of sAβ pretreatment on LPS-induced TNF-α release” value is listed as “not”, the “effect of sAβ pretreatment on glutamate-induced TNF-α release” value was “dose-dependently potentiated” and the “effect of sAβ pretreatment on thrombin-induced TNF-α release” value is reported as “dose-dependently potentiated”. For the same molecule, in the test on TNF-α [1] (sAβ given 10 min after thrombin or glutamate), the “enhancement of TNF-α release when sAβ is given after thrombin or glutamate (post-treatment)” value is “not”. The “translocation of GRK5 from cell membrane to cytosol” value with GRK5 (50 nM peptide) is recorded as “To a lesser extent, similar GRK5 changes were also observed”. Moreover, the “translocation of GRK5 from cell membrane to cytosol” value in the test with GRK5 (500 nM peptide) was “induced a rapid translocation of GRK5 from cell membrane to cytosol”. For the same molecule, in the test on GRK5 (500 nM, 5 minutes, N9 microglial cells), the “translocation of GRK5 from membrane to cytosol compartment” value was “induced a rapid translocation of GRK5 from membrane to cytosol compartment”.

For thrombin, the “increase of PAR4 binding to GRK2” value with PAR4-GRK2 is given as around 2 fold. Further, the “increase of PAR1 binding to GRK2” value in the test on PAR1-GRK2 is listed as around 30 fold. In addition, the “p38 MAPK phosphorylation” value is reported as “returned to basal levels” in the test on p38 MAPK (24 h) and “increased phosphorylation” in the test on p38 MAPK (setting [4]). In test [Ca^2+]i (thrombin alone (100 nM)), the “[Ca^2+]i above basal levels after the rapid decrease” value was “approximately 100 nM”. Further, the “change of [Ca^2+]i” value is “steep and sharp increase” in test [Ca^2+]i (thrombin alone (100 nM)); “sharp increase and rapidly decrease” in test [Ca^2+]i (thrombin alone (100 nM), listed as Thrombin). Further, the “duration of the [Ca^2+]i level above basal” value in test [Ca^2+]i (thrombin alone (100 nM)) is “at least 4 min”. Also, in the test on TNF-α [1] (N9 cells, FIG. 6B), the “TNF-α release induced by the activator alone” value is given as “significantly stimulated”. Besides, the “p44/42 MAPK phosphorylation” value with p44/42 MAPK (24 h) was “returned to basal levels”; in the test with p44/42 MAPK (setting [4]), “increased phosphorylation”. Besides, the “increase of PAR4 binding to GRK5” value with PAR4-GRK5 is around 4 fold.
